Columns and labels:
[1] = tested on: cholesterol in lean tissue and plasma; assay: Lamb trials: cholesterol in lean tissue and plasma; assay type: in vivo, lambs (sheep)
Text: The lambs used in Trial 1 consisted of medium-frame crossbred wethers and ewes weighing 26 to 31 kg. The lambs used in Trial 2 consisted of medium-framced crossbred rams weighing 18 to 25 kg. Each animal was raised as a single. The lambs were housed in a temperature controlled room in individual pens with nipple waterers. When received, the lamps were vaccinated for enterotoxemia. They were allowed to adjust to the pens and the environment for 10 days. One day before the trial began, the lambs were sheared and placed on their respective dietary treatments. The lamps were allotted blocking by weight and sex into two dietary treatment groups. Growth and feed consumption were measured bi-weekly. All lamb weights were taken after a 12 to 16 hour fast. The animals were slaughtered at 50 kg in the Iowa State University Meat laboratory facilities at Ames, Iowa. At slaughter, the lamb's internal organs and wool were weighed and sampled, loin eye area and back fat measured, and carcasses separated into fat, lean, and bone.
The SMB (soybean meal-containing) and the CGM (corn-gluten-containing) diets (compositions given in Table A) were fed twice per day in quantities ensuring that feed was before the lambs at all times. The diets were calculated to be equivalent to each other with respect to metabolizable protein, ether extract, fiber, and minerals with the exception of calcium and phosphorus. […] The CGM diet was calculated to contain slightly more energy (TDN 81.7 vs. 79.0, NEm 1.88 v. 1.86, Neg. 1.23 vs. 1.22). […] The soybean meal ingredient contained about 3.5 wt % leucine, while the corn gluten meal ingredient contained about 15 wt % leucine. The CGM diet was therefore higher in leucine than the SBM diet, containing an estimated 16 wt % leucine as compared with an estimated 8 wt % leucine based on total crude protein in the diet.
^(8) Amount of cholesterol in lean tissue (ng/mg) and plasma (ng/ml).
^(1)- (8) See Table B, except cholesterol data is for lean tissue

[2] = Feedlot steers: death, sickness, condemned livers; assay type: in vivo, steers (cattle)
Text: Seventy-two medium-frame steers, with an average weight of 578 lbs., were allotted to 12 pens of 6 animals each. A common basal diet was fed ad libitum to all cattle. This consisted of 48.9% cracked corn, 24.4% ground corn cobs, 17.8% expeller Soybean meal, 7.0% molasses (liquid), 1.3% limestone, 0.25% dicalcium phosphate, 2% salt, 0.02% trace mineral premix, and 0.1% vitamin A premix for the first 58 days of the experiment, and was changed to 54.3% cracked corn and 12.8% expeller soybean meal for the remaining 103 days of the experiment. Three pens were assigned to each treatment. The treatments consisted of four levels of Ca-KIC in a pelleted supplement: 0%, 0.02%, 0.07%, and 0.20% of the basal diet (0.05% control pellets, 0.04% KIC pellets, 0.14% KIC pellets, and 0.40% KIC pellets). The pellets were preweighted and top-dressed on the basal diet twice daily. After 58 days, the cattle on the 0.20% KIC were removed from the experiment. The cattle were not implanted with a growth promotant nor were ionophores included in the diet. The cattle were placed in the feedlot and fed a growing ration for 5 weeks prior to the start of the experiment. The cattle were weighed on 2 consecutive days at the beginning and end of the experiment, and every 14 days during the trial. […] Loin eye area and fat thickness over the loin were measured on each carcass. […]

## CC(C)CC(=O)C(=O)O [KIC, alpha-ketoisocaproate]
[1]; Trial 1, CGM diet, 1% KIC (0%: 33)
  CHOLESTEROL PLASMA: amount of cholesterol in plasma: 32 ng/mL
[1]; Trial 1, CGM diet, 1% KIC (0%: 40)
  CHOLESTEROL TISSUE: amount of cholesterol in lean tissue: 32 ng/mg
[1]; Trial 1, SBM diet, 1% KIC (0%: 32)
  CHOLESTEROL PLASMA: amount of cholesterol in plasma: 23 ng/mL
[1]; Trial 1, SBM diet, 1% KIC (0%: 80)
  CHOLESTEROL TISSUE: amount of cholesterol in lean tissue: 44 ng/mg
[1]; Trial 2, CGM diet, 1% KIC (0%: 92.2), * p<.05
  CHOLESTEROL: lean tissue: 81.2 ng/mg
[1]; Trial 2, SBM diet, 1% KIC (0%: 75.2)
  CHOLESTEROL: lean tissue: 83.2 ng/mg
[2]; KIC-treated groups (control: one died, one treated)
  animals that died or were treated for sickness: no animals
[2]; bovine, in vivo
  condemned liver: one

Source: patent publication US4835185A, “Immunomodulator for improving commercial performance of domestic animals” (Iowa State University Research Foundation, Inc., priority 1987, dated 1989)
